Results published in patent US20260008768A1, “UREA DERIVATIVES FOR INHIBITING NLRP3 AND USES THEREOF” (VENTUS THERAPEUTICS U.S., INC., priority 2023, published 2026).
pIC50: −log10 of the molar value.

Tests used:
human NLRP3 [1] = biological target: T1, human NLRP3 (Homo sapiens, UniProt Q96P20); experiment: Human Whole Blood (hWB) NLRP3 Assay (LPS/ATP, IL-1β); type: cell-based; set-up: host or cells: human whole blood from healthy volunteers (A3)
Protocol: Human whole blood is drawn from healthy volunteers after obtaining written informed consent. Heparin lithium coated tubes are used to collect blood from volunteers. Blood samples are distributed on 96 well plates using 90 μl per well.
Priming procedure: Priming is performed by adding 5 μl of LPS (O26:B6; Sigma L-2654) at a final concentration of 1 μg/ml for 4.5 hours in a humidified incubator with 37° C., 5% CO2. Thirty minutes prior to NLRP3 activation, 5 μl of a 20× compound solution or vehicle (2% dimethylsulfoxide (DMSO)) is added to each well and plates were incubated on a shaker (450 rpm) in a humidified incubator with 37° C., 5% CO2.
Alternative priming procedure: Thirty minutes prior to LPS priming, 5 μl of a 20× compound solution or vehicle (2% dimethylsulfoxide (DMSO)) is added to each well and plates were incubated on a shaker (450 rpm) in a humidified incubator with 37° C., 5% CO2. Priming is performed by adding 5 μl of LPS (O26:B6; Sigma L-2654) at a final concentration of 1 μg/ml for 5 hours in a humidified incubator with 37° C., 5% CO2.
Activation is then performed by adding 3.3 μl of a 31×ATP solution per well. At the end of the 30 minutes stimulation, the plates are centrifuged (800 g, 10 min, room temperature) and the plasma from each well is frozen at −80° C. IL-1β levels in the supernatant were analyzed using a mesoscale discovery assay (MSD K151TUK) according to the manufacturers' instructions.
There is no detectable difference in assay results using the priming procedure versus the alternative priming procedure.
hWB NLRP3 IC50 assay results, as a measurement of whole blood potency, are provided in Table B. “A” activity=<1 uM; “B” activity=1-2 uM; “C” activity=>2-3 uM; “D” activity=>3 uM.

human NLRP3 [2] = biological target: T1, human NLRP3; experiment: Human PBMC NLRP3 Assay (LPS priming, ATP stimulation, cytokine measurement); type: cell-based; set-up: host or cells: human PBMCs (A2); human whole blood from healthy volunteers (A3); settings: human PBMC, LPS + ATP
Protocol: Reagents: Human PBMCs (Normal): iXCells Cat #10HU-003; RPMI 1640 medium with GlutaMAX: ThermoFisher Cat #61870127 (Complete Media: 4.5 g/L D-glucose, 10% FBS, 100 mM NaPyr, 1% Pen/Strep, 10 mM HEPES and 0.05 mM of ®-mercaptoethanol; Assay Media: 4.5 g/L D-glucose, 100 mM NaPyr, 1% Pen/Strep, 10 mM HEPES and 0.05 mM of mercaptoethanol; 96-well V-bottom Plates: Costar Cat #3894; LPS (E. coli O26:B6): Sigma Cat #L2654, stock 5 mg/mL in PBS; ATP: Sigma Cat #A6419, prepared in a 250 mM stock in 1 M HEPES (adjusted to pH 7.4).
Cryopreserved PBMCs were rapidly thawed in a 37° C. water bath for 2 min. Cells were then centrifuged at 1200 RPM for 5 min and resuspended in ˜50 mL of fresh RPMI 1640 Complete Medium. A count was undertaken using a hemocytometer and adjusted to 2.5×10^5 cells/mL. V-shaped 96-well plates were seeded with 200 μL of PBMCs (5×10^4) per well and subsequently incubated overnight at 37° C. with 5% CO2. Assay Media was then prepared containing 100 ng/ml of LPS. PBMCs were then centrifuged at 1,200 RPM for 5 min, serum containing media was aspirated, and 150 μL/well of Assay Media+LPS was immediately added. Assay Media without LPS was added in the untreated control wells. Cells were then primed with LPS for 4 h at 37° C. with 5% CO2. A concentration response curve (CRC) was prepared of 1000× test compound in 100% DMSO. The CRC was then diluted 1:50 in Assay Media and then further diluted by 1:5× in Assay Media resulting in a final 4×CRC in 0.4% DMSO/Assay Media. 50 μL/well of 4× test compound CRC or vehicle (0.4% DMSO/Assay Media) was then transferred into each well and subsequently incubated for 30 min at 37° C. with 5% CO2. Cells were stimulated by adding 4 μL of 250 mM ATP, using a 250 mM stock prepared in 1 M Hepes without further dilution (for a final concentration of 5 mM), for 1 h at 37° C. with 5% CO2 Plates were then centrifuged at 1200 RPM for 5 min; and 50 μl of the media was transferred to a clean 96-well storage plate for cytokine measurements using the mesoscale platform, and stored at −80° C. until analyzed. Compounds were added 30 minutes before priming the cells with LPS when TNFα was required to be quantified in the cytokine panel to confirm selectivity.
PBMC NLRP3 IC50 assay results, as a measurement of cellular potency, are provided in Table B. “A” activity=<0.01 uM; “B” activity=0.01-0.1 uM; “C” activity=>0.1-0.5 uM; “D” activity=>0.5 uM.

human NLRP3 [3] = biological target: T1, human NLRP3; experiment: Scintillation Proximity (SPA) NLRP3 Assay, displacement of 3H-MCC950; type: binding; settings: displacement of 3H-MCC950 from human NLRP3
Summary of the method: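 Human NLRP3 (350 nM) preincubated 15 min at RT with compound (5% DMSO final) in HEPES pH 7.5 buffer with 100 μM ADP, then 125 nM 3H-MCC950 added for 60 min. Copper PVT SPA beads added; counts read 6 h later. Specific binding = signal minus no-protein wells, duplicates averaged; IC50 reported.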

T1 sequence (Q96P20 whole entry): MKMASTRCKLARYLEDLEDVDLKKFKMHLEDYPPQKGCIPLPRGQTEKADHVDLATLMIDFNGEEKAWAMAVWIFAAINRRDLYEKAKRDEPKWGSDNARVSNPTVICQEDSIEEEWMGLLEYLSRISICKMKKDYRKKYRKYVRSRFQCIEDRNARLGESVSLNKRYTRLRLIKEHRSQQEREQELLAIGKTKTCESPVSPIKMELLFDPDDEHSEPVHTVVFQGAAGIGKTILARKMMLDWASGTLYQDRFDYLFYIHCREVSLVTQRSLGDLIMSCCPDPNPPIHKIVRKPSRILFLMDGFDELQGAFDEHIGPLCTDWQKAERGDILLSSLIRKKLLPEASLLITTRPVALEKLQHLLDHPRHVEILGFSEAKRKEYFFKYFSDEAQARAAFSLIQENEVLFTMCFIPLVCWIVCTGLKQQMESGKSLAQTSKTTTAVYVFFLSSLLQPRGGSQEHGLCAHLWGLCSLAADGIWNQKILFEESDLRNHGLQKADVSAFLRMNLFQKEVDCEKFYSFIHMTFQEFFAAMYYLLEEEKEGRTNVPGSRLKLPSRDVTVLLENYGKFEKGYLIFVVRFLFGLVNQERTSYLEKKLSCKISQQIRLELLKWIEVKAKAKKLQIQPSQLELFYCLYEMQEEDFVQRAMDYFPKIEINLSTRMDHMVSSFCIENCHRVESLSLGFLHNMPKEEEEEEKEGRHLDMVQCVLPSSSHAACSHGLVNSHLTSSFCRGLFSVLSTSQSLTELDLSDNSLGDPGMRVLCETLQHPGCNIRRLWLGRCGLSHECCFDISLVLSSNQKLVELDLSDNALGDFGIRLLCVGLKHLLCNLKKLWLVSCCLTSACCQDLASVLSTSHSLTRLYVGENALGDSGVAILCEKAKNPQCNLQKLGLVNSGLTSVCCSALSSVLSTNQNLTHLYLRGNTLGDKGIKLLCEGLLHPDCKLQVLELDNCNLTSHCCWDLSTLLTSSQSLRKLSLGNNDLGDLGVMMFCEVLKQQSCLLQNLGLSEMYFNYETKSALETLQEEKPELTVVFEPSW

| Structure (SMILES) | pIC50 (human NLRP3 [1]; Table B, activity class) | pIC50 (human NLRP3 [2]; Table B, activity class) | pIC50 (human NLRP3 [3]; Table B, activity class) | pIC50 (human NLRP3 [1]; Table C) | pIC50 (human NLRP3 [2]; Table C) | pIC50 (human NLRP3 [3]; Table C) |
| --- | --- | --- | --- | --- | --- | --- |
| C[C@@H]1C[C@@H](NC(=O)N(C)c2ccc(C3CC3)cc2)[C@H]2CC[C@@H]1N2c1nnn[nH]1 (single isomer, unassigned) [46A*] | > 6.00 | > 8.00 | > 6.00 | – | – | – |
| C[C@@H]1C[C@@H](NC(=O)N(C)c2ccc(C(F)(F)F)c(F)c2)[C@H]2CC[C@@H]1N2c1nnn[nH]1 (single isomer, unassigned) [49A*] | 5.70 to 6.00 | 7.00 to 8.00 | > 6.00 | – | – | – |
| C[C@@H]1C[C@@H](NC(=O)N(C)c2ccc(OC(F)F)c(F)c2)[C@H]2CC[C@@H]1N2c1nnn[nH]1 (single isomer, unassigned) [52A*] | > 6.00 | 7.00 to 8.00 | > 6.00 | – | – | – |
| C[C@@H]1C[C@@H](NC(=O)N(C)c2ccc(C3CC3)c(F)c2)[C@H]2CC[C@@H]1N2c1nnn[nH]1 (single isomer, unassigned) [54A*] | > 6.00 | > 8.00 | > 6.00 | – | – | – |
| C[C@@H]1C[C@@H](NC(=O)N(C)c2ccc(OC(F)F)cc2F)[C@H]2CC[C@@H]1N2c1nnn[nH]1 (single isomer, unassigned) [57A*] | > 6.00 | > 8.00 | > 6.00 | 6.72 | 8.51 | 6.70 |
| C[C@@H]1C[C@@H](NC(=O)N(C)c2ccc(OC(F)(F)F)c(F)c2F)[C@H]2CC[C@@H]1N2c1nnn[nH]1 (single isomer, unassigned) [59A*] | 5.52 to 5.70 | 6.30 to 7.00 | > 6.00 | – | – | – |
| C[C@@H]1C[C@@H](NC(=O)N(C)c2c(F)cc(C3CC3)cc2F)[C@H]2CC[C@@H]1N2c1nnn[nH]1 (single isomer, unassigned) [60A*] | > 6.00 | > 8.00 | > 6.00 | – | – | – |
| C[C@@H]1C[C@@H](NC(=O)N(C)c2c(F)cc(OC(F)F)cc2F)[C@H]2CC[C@@H]1N2c1nnn[nH]1 (single isomer, unassigned) [61A*] | > 6.00 | > 8.00 | > 6.00 | – | – | – |
| C[C@@H]1C[C@@H](NC(=O)N(C)c2c(F)cc(OC(F)(F)F)cc2F)[C@H]2CC[C@@H]1N2c1nnn[nH]1 (single isomer, unassigned) [62A*] | > 6.00 | 7.00 to 8.00 | > 6.00 | – | – | – |
| C[C@@H]1C[C@@H](NC(=O)N(C)c2ccc(OC(F)F)c(OC(F)F)c2)[C@H]2CC[C@@H]1N2c1nnn[nH]1 (single isomer, unassigned) [64A*] | > 6.00 | 7.00 to 8.00 | > 6.00 | – | – | – |
